For the data set the following is noted: mouse, in vivo.

Experimental findings from patent US20210322545A1 (priority 2016, published 2021) are described below.

As for `CN[C@@H](C)C(=O)N[C@H](C(=O)N1CCC[C@H]1c1nc(C(=O)c2ccc(F)cc2)cs1)C1CCCCC1` [LCL161], the “body weight in combination treatment cohort” value is given as “fully recovered following the last treatment”.
